# Test results as given in ChEMBL document CHEMBL1156817, “Fructose-1,6-bisphosphatase Inhibitors. 2. Design, synthesis, and structure-activity relationship of a series of phosphonic acid containing benzimidazoles that function as 5'-adenosinemonophosphate (AMP) mimics” (J Med Chem, 2010).
# Columns and labels:
# [1] = target: T1, Fructose-1,6-bisphosphatase 1 (Homo sapiens, UniProt P09467); test: Inhibition of human liver FBPase 1
# T1 sequence (P09467 whole entry): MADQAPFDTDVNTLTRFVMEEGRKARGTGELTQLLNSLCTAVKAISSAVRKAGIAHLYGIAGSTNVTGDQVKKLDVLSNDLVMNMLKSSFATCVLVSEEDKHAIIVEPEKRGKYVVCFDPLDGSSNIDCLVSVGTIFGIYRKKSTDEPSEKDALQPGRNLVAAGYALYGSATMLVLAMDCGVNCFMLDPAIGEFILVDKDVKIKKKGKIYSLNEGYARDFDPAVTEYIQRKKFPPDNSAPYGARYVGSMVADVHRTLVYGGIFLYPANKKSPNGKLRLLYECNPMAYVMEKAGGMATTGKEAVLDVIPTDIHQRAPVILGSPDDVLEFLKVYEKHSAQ
# [2] = target: T2, Fructose-1,6-bisphosphatase 1 (Rattus norvegicus, UniProt P19112); test: Inhibition of rat liver FBPase 1
# T2 sequence (P19112 whole entry): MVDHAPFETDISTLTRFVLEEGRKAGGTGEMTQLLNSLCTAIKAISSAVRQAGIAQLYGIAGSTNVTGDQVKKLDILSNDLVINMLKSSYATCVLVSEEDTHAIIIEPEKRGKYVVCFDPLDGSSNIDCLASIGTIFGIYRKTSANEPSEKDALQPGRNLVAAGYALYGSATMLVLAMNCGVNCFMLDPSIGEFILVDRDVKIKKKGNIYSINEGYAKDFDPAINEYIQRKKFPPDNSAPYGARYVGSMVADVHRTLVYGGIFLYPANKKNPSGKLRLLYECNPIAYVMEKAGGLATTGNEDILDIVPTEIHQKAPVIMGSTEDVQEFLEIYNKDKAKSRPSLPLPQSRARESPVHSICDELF
# [3] = test system: Hepatocyte; test: cells; conditions: Rattus norvegicus
# Description: Inhibition of glucose production in rat primary hepatocytes
# [4] = test system: Rattus norvegicus; test: Reduction of blood glucose level in 18 hrs fasted normal Sprague-Dawley rat at 10 mg/kg, iv after 1 hr interval; assay type: functional; set-up: scale not given: the % may be the effect or the level left
# [5] = Oral bioavailability in 18 hrs fasted normal Sprague-Dawley rat up to 100 mg/kg by urinary excretion assay; assay type: ADME, organism-based; conditions: urine
Compound,IC50 [1],IC50 [2],IC50 [3],Activity [4],bioavailability [5]
CC(C)Cn1c(-c2ccc(P(=O)(O)O)o2)nc2c(N)c(Cl)ccc21,0.2 µM,2 µM,15 µM,,
CC(C)Cn1c(-c2ccc(P(=O)(O)O)o2)nc2c(N)c(F)cc(-c3ccc(Cl)cc3)c21,0.09 µM,2 µM,> 25 µM,,
CC(C)Cn1c(-c2ccc(P(=O)(O)O)o2)nc2c(N)c(F)cc(-c3ccccc3)c21,0.09 µM,0.9 µM,18 µM,0%,
Nc1cccc2c1nc(-c1ccc(P(=O)(O)O)o1)n2Cc1ccsc1,4 µM,20 µM,100 µM,,
Nc1c(F)ccc2c1nc(-c1ccc(P(=O)(O)O)o1)n2CC1CC1,,2.18 µM,3.3 µM,,
Cn1c(-c2ccc(P(=O)(O)O)o2)nc2c(N)cccc21,6 µM,20 µM,100 µM,,
CC(C)(C)c1ccc(Cn2c(-c3ccc(P(=O)(O)O)o3)nc3c(N)cccc32)cc1,9.5 µM,20 µM,100 µM,,
Nc1cccc2c1nc(-c1ccc(P(=O)(O)O)o1)n2CC1CCCCCC1,3.25 µM,20 µM,100 µM,,
CC(C)Cn1c(-c2ccc(P(=O)(O)O)o2)nc2c(N)c(F)cc(CCC(C)(C)C)c21,0.21 µM,1.6 µM,18 µM,28%,
CC(C)Cn1c(-c2ccc(P(=O)(O)O)o2)nc2c(N)c(F)ccc21,0.1 µM,2.28 µM,2.4 µM,,
CCOC(=O)[C@H](C)NP(=O)(N[C@@H](C)C(=O)OCC)c1ccc(-c2nc3c(N)c(F)cc(CC)c3n2CC(C)C)o1,,,,,5%
CC(C)Cn1c(-c2ccc(P(=O)(O)O)o2)nc2c(N)c(F)cc(Br)c21,0.13 µM,2.09 µM,5 µM,,
Nc1cccc2c1nc(-c1ccc(P(=O)(O)O)o1)n2Cc1ccoc1,4.2 µM,20 µM,100 µM,,
CCOC(=O)OCOP(=O)(OCOC(=O)OCC)c1ccc(-c2nc3c(N)c(F)cc(CC)c3n2CC(C)C)o1,,,,,2%
CC(C)Cn1c(-c2ccc(P(=O)(O)O)o2)nc2c(N)c(F)cc(Cl)c21,0.1 µM,2 µM,,,
CC(C)Cn1c(-c2ccc(P(=O)(O)O)o2)nc2c(N)ccc(Cl)c21,0.9 µM,2 µM,24 µM,,
CC(C)Cn1c(-c2ccc(P(=O)(O)O)o2)nc2c(N)c(O)ccc21,0.5 µM,20 µM,25 µM,,
CC(C)Cn1c(-c2ccc(P(=O)(O)O)o2)nc2c(N)cccc21,1.5 µM,4 µM,20 µM,,
CCCc1ccc2c(nc(-c3ccc(P(=O)(O)O)o3)n2CC(C)C)c1N,3 µM,20 µM,50 µM,,
CC(C)Cn1c(-c2ccc(P(=O)(O)O)o2)nc2c(N)c(F)cc(CCCO)c21,0.08 µM,0.45 µM,1 µM,63%,
CC(C)Cn1c(-c2ccc(P(=O)(O)O)o2)nc2c(N)c(Br)c(Cl)c(Cl)c21,10 µM,,,,
CC(C)Cn1c(-c2ccc(P(=O)(O)O)o2)nc2c(N)ccc(Br)c21,0.4 µM,2 µM,14 µM,,
CC(C)Cn1c(-c2ccc(P(=O)(O)O)o2)nc2c(N)c(Cl)cc(Cl)c21,0.45 µM,2 µM,14 µM,,
CC(C)Cn1c(-c2ccc(P(=O)(O)O)o2)nc2c(N)c(F)cc(-c3ccc(F)cc3)c21,0.18 µM,1.3 µM,21 µM,0%,
Nc1cccc2c1nc(-c1ccc(P(=O)(O)O)o1)n2CC12CCC(CC1)C2,1 µM,2 µM,25 µM,,
CC(C)Cn1c(-c2ccc(P(=O)(O)O)o2)nc2c(N)c(F)cc(C3CC3)c21,0.06 µM,0.35 µM,1.5 µM,64%,

Compound,IC50 [1],IC50 [2],IC50 [3],Activity [4],bioavailability [5]
Nc1cccc2c1nc(-c1ccc(P(=O)(O)O)o1)n2CC1CC1,0.8 µM,20 µM,100 µM,,
Nc1cccc2c1nc(-c1ccc(P(=O)(O)O)o1)n2CC1CCCC1,1.5 µM,2 µM,45 µM,,
CCc1cc(F)c(N)c2nc(-c3ccc(P(=O)(Oc4ccc(C(=O)OC(C)(C)C)cc4)Oc4ccc(C(=O)OC(C)(C)C)cc4)o3)n(CC(C)C)c12,,,,,2%
Nc1cccc2c1nc(-c1ccc(P(=O)(O)O)o1)n2Cc1ccccc1,5 µM,20 µM,100 µM,,
CCc1ccc2c(nc(-c3ccc(P(=O)(O)O)o3)n2CC(C)C)c1N,2.5 µM,20 µM,50 µM,,
CC(C)Cn1c(-c2ccc(P(=O)(O)O)o2)nc2c(N)c(Br)cc(Br)c21,1 µM,2 µM,14 µM,,
CC(C)Cn1c(-c2ccc(P(=O)(O)O)o2)nc2c(N)c(F)c(Cl)cc21,0.225 µM,2 µM,16 µM,,
CCn1c(-c2ccc(P(=O)(O)O)o2)nc2c(N)cccc21,2.25 µM,40 µM,,,
Nc1cccc2c1nc(-c1ccc(P(=O)(O)O)o1)n2Cc1ccc(-c2ccccc2)cc1,2.5 µM,20 µM,100 µM,,
Nc1cccc2c1nc(-c1ccc(P(=O)(O)O)o1)n2Cc1cccc(O)c1,1.85 µM,20 µM,100 µM,,
CCC(CC)Cn1c(-c2ccc(P(=O)(O)O)o2)nc2c(N)c(F)ccc21,0.15 µM,0.85 µM,5 µM,,
CCCn1c(-c2ccc(P(=O)(O)O)o2)nc2c(N)cccc21,1.1 µM,2 µM,37 µM,,
CC(C)Cn1c(-c2ccc(P(=O)(O)O)o2)nc2c(N)c(F)cc(CCCCCl)c21,0.07 µM,0.5 µM,3.1 µM,47%,
CC(C)Cn1c(-c2ccc(P(=O)(O)O)o2)nc2c(N)c(Br)ccc21,0.4 µM,,14 µM,,
CCc1cc(F)c(N)c2nc(-c3ccc(P(=O)(OCC(=O)OC(C)(C)C)OCC(=O)OC(C)(C)C)o3)n(CC(C)C)c12,,,,,2%
C=Cc1cc(F)c(N)c2nc(-c3ccc(P(=O)(O)O)o3)n(CC(C)C)c12,0.28 µM,0.9 µM,25 µM,,
Nc1cccc2c1nc(-c1ccc(P(=O)(O)O)o1)n2Cc1ccc(C(F)(F)F)cc1,7 µM,20 µM,100 µM,,
Nc1cccc2c1nc(-c1ccc(P(=O)(O)O)o1)n2CC1CCCCC1,2.5 µM,20 µM,100 µM,,
CC(C)CCCc1cc(F)c(N)c2nc(-c3ccc(P(=O)(O)O)o3)n(CC(C)C)c12,0.1 µM,2.1 µM,23 µM,,
CCC(CC)n1c(-c2ccc(P(=O)(O)O)o2)nc2c(N)c(F)ccc21,0.85 µM,2.5 µM,9.5 µM,,
Nc1cccc2c1nc(-c1ccc(P(=O)(O)O)o1)n2CC1CCC1,0.8 µM,2 µM,40 µM,,
CCc1cc(F)c(N)c2nc(-c3ccc(P(=O)(OCCSC(C)=O)OCCSC(C)=O)o3)n(CC(C)C)c12,,,,,2%
COc1ccc2c(nc(-c3ccc(P(=O)(O)O)o3)n2CC(C)C)c1N,0.7 µM,2 µM,16 µM,,
CC(C)Cn1c(-c2ccc(P(=O)(O)O)o2)nc2c(N)c(F)cc(CCCN(C)C)c21,0.055 µM,0.4 µM,,44%,
CCc1cc(F)c(N)c2nc(-c3ccc(P(=O)(OCC(=O)OC(C)(C)C)OCC(=O)OC(C)(C)C)o3)n(CC(C)C)c12.Cl,,,,,2%
CCCc1cc(F)c(N)c2nc(-c3ccc(P(=O)(O)O)o3)n(CC(C)C)c12,0.1 µM,0.65 µM,5.5 µM,60%,
